{
  "source": "patent US7312358B2",
  "about": "“Pharmaceutically active sulfanilide derivatives” (Laboratoires Serono SA, priority 2000, dated 2007)",
  "key": {"hV1a [1]": {"target": "T1, hV1a (Homo sapiens, UniProt P37288)", "T1 sequence (P37288 whole entry)": "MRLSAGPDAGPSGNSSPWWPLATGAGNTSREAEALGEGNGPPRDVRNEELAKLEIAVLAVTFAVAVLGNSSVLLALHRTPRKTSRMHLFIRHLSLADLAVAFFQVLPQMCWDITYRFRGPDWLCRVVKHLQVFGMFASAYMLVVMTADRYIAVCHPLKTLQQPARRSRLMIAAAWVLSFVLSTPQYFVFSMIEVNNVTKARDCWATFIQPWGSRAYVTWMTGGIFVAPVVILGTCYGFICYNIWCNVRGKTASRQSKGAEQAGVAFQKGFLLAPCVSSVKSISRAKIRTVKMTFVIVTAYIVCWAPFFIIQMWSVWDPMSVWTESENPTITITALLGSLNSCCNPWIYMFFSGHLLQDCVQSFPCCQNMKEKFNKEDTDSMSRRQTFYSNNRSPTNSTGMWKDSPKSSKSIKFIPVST", "test": "Inhibition of vasopressin-mediated Ca2+-mobilization by FLIPR (CHO cells expressing hV1a)", "assay_type": "cell-based", "design": "expressed in transfected cells; host or cells: CHO cells", "conditions": "fluo-4, AVP 40 nM", "source_text": "d) Functional Assay No. 1: Inhibition of Vasopressin-Mediated Ca^2+-mobilization by FLIPR (Fluorescent Imaging Plate Reader)\n(§1) FLIPR is a machine for fluorescence imaging using a laser that is capable of illuminating a 96-well plate and a means of simultaneously reading each well thus enabling rapid measurements on a large number of samples.\nThis assay intends to show the inhibition of the AVP/V1a-R mediated calcium mobilisation—being necessary to cause uterine contractions—by using test compounds of formula (1).\nPreparing the plates: FLIPR-plates were pre-coated with PLL (Poly-L-Lysine) 10 μg/ml+0.1% gelatine to attach the CHO cells (expessing hV1a) for 30 min up to 2 days at 37° C. The cells were plated out into 96-well plates (60000 cells/well).\n(§2) Labelling with fluo-4: 50 μg fluo-4 (fluorescent marker) were dissolved in 20 μl pluronic acid (20% in DMSO). The dissolved fluo-4 was then diluted in 10 ml DMEM (Dubecco's […] Medium-F12 medium without FCS (Fetal Calf Serum). The medium was removed from the plates, followed by one wash with DMEM-F12 medium. Now, 100 μl of the DMEM-F12 medium containing fluo-4 were added and the cells incubated for 1-1.5 h (CHO-cells). The cells now contain the fluorescent marker.\n(§3) Buffer: 145 mM NaCl, 5 mM KCl, 1 mM MgCl2, 10 mM Hepes, 10 mM Glucose, EGTA (Ethylene-bis oxyethylene nitrilo tetraacetic acid). Adjust to pH 7.4.\n(§4) Performance of the assay: A minimum of 80 μl/well of antagonists (5×) in the above buffer (1×) were prepared (96-well plates). The antagonists were added to the well-plates at different concentrations (30 μM, 10 μM, 1 μM, 300 nM, 100 nM, 10 nM, 1 nM, 100 pM, 10 pM).\nAVP is added at a concentration of 40 nM.\n(§5) The fluorescent marker being sensitive to the amount of Ca^2+ mobilized within the cell may be quantified by the FLIPR machine.\n(§6) The activities of the sulfanilide derivatives according to formula I were assessed using the above described in vitro biological assay. The values refer to the capacity of the example compounds according to formula I to effectively antagonize AVP-induced intracellular Ca^2+-mobilization mediated by the VIa-receptor."}, "hOT-R": {"target": "T2, hOT-R (Homo sapiens, UniProt P30559)", "T2 construct": "expressed in transfected cells; host or cells: HEK (Human Embryonic Kidney) cells", "T2 sequence (P30559 1-389)": "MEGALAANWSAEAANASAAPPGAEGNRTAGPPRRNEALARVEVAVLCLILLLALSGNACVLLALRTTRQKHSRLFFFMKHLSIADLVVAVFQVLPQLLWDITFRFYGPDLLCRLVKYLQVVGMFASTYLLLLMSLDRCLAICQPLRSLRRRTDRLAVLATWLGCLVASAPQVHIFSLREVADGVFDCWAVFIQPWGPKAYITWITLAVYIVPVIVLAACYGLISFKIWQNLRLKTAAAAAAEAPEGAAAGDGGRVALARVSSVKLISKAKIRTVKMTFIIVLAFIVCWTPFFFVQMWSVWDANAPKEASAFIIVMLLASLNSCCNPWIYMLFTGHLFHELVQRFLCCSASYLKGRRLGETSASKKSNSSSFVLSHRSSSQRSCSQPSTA", "test": "Inhibition of oxytocin mediated Ca2+-mobilization by FLIPR (HEK cells)", "assay_type": "cell-based", "conditions": "fluo-4, OT 40 nM", "source_text": "c) Functional Assay No. 1: Inhibition of Oxytocitn Mediated Ca^2+-Mobilization by FLIPR (Fluorescent Imaging Plate Reader)\nas §1\nThis assay intends to show the inhibition of the OT/OT-R mediated calcium mobilisation—being necessary to cause uterine contractions—by using test compounds of formula (I).\nPreparing the plates: FLIPR-plates were pre-coated with PLL (Poly-L-Lysine) 10 μg/ml+0.1% gelatine to attach the HEK (Human Embryonic Kidney) cells for 30 min up to 2 days at 37° C. The cells were plated out into 96-well plates (60000 cells/well).\nas §2, with “[…]” for “50 μg”, “with DNEM-F12” for “with DMEM-F12”, “for 1.5-2” for “for 1-1.5”, “h (HEK-cells).” for “h (CHO-cells).”\nas §3, §4\nOT is added at a concentration of 40 nM.\nas §5\nas §6, with “oxytocin-induced” for “AVP-induced”, “oxytocin receptor.” for “VIa-receptor.”"}, "ratOT-R": {"target": "T3, ratOT-R (Rattus norvegicus, UniProt P70536)", "T3 construct": "expressed in transfected cells; host or cells: HEK/EBNA cells", "T3 sequence (P70536 1-388)": "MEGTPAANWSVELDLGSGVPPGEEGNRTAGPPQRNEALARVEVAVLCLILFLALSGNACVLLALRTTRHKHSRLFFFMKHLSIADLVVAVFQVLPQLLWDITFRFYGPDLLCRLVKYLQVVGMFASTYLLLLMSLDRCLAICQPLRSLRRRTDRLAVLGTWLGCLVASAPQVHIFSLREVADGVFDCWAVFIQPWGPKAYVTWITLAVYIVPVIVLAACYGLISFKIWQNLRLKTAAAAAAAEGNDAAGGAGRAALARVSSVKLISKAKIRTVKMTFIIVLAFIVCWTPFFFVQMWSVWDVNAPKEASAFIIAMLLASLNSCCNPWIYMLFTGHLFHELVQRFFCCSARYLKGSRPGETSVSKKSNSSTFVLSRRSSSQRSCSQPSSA", "test": "Inhibition of IP3 (inositol tri-phosphate)-synthesis in HEK/EBNA-OTR cells", "assay_type": "cell-based", "conditions": "[3H]-inositol, oxytocin 10 nM", "experimental": "e) Functional Assay No. 2: Inhibition of IP3 (Inositol Tri-Phosphate)-Synthesis in HEK/EBNA-OTR Cells\nThis assay intends to show the inhibition of the OT/OT-R mediated IP3 synthesis—being necessary to cause uterine contractions—by using test compounds of formula (I).\nStimulation of the cells: IIEK/EBNA OTR(rat or human) cells were plated out into costar 12-well plates, and equilibrated for 15-24 h with [^3H]-inositol radiolabel in medium without inositol supplement, with 1% FCS (0.5 ml/well). 4 μCi/ml were used. After this, the medium containing the label was aspirated. Then was added DMEM (without FCS, inositol), 20 mM Hepes (4-(2-hydroxyethyl)-1-piperazine-ethane-sulphonic acid), 1 mg/ml BSA containing 10 mM LiCl (freshly prepared), for […] at 37° C. The agonist (i.e. oxytocin used at a concentration of 10 nM) and the antagonists (i.e. the tests compounds of formula (1) used in a concentration of 10 μM, 1 μM, 300 nM, 100 nM, 10 nM, 1 nM, 100 pM, 10 pM, 3 pM) were added for the time required (15-45 min), followed by aspiration of the medium. Due to the […] of the OT receptor, the radiolabeled inositol is phosphorylated to yield IP3, the amount of the radiolabeled IP3 may be determined through the ensuing work-up. The reaction was stopped with 1 ml STOP-solution (i.e. 0.4 M perchloric acid), and let sit for 5-10 min at Room Temperature. Then, 0.8 ml were transferred into tubes containing 0.4 ml of neutralizing solution (0.72 M KOH/0.6M KHCO3), and the tubes vortexed and kept in the cold at least for 2 h.\nSeparation of IP's: The samples were spun in a table top centrifuge at 3000-4000 rpm for 15 min. 1 ml of the supernatant was transferred to new tubes containing 2.5 ml H2O. Packed resin (0.8 ml) was equilibrated with 20 ml H2O, and the whole samples poured onto the chromatography columns, thus separating the mixture. To discard free inositol, two washes with 10 ml H2O were carried out.\nElution of total IP's: The elution was achieved using 3 ml 1M ammonium formate/0.1M formic acid. The eluant was collected in scintillation counting tubes, followed by addition of 7 ml of scintillation liquid. The amount of IP3 is determined by a scintillating counter.\nThe activities of the sulfanilide derivatives claimed in the formula I were assessed using the above described in vitro biological assay. The values refer to the capacity of the example compounds according to formula I to effectively antagonize oxytocin-induced IP3-synthesis mediated by the oxytocin receptor."}, "hV1a [2]": {"target": "T1, hV1a", "test": "In vitro competition binding assay on hV1a receptor with scintillating proximity assay", "design": "expressed in transfected cells; host or cells: CHO cells (membranes)", "conditions": "membranes from CHO cells expressing hV1a receptor; radiolabel [125I]-LVA; SPA; read-out: Binding Affinity Human V1a Ki", "experimental": "b) In Vitro Competition Binding Assay on hV1a Receptor with Scintillating Proximity Assay\nThis assays allows to determine the affinity of the test compounds for the V1a receptor. Membranes from CHO cells expressing the hV1a receptor were resuspended in buffer containing 50 mM Tris-HCl, pH 7.4, 5 mM MgCl2 and 0.1% BSA (w/v). The membranes (5-10 μg) were mixed with 0.2 mg wheat-germ aglutinin (WGA) SPA bead (type A) and 0.03 nM of the radiolabel [^125I]-LVA (LVA being Linear Vasopressin Antagonist and is an analogue of AVP for competition binding experiments). Non-specific binding was determined in the presence of 1 μM AVP. The total assay volume was 100 μl. The plates (Corning 0 NBS plate) were incubated at room temperature for 2 hours and counted on a Mibrobeta plate counter. The tests compounds were used in concentrations of 30 μM, 10 μM, 1 μM, 300 nM, 100 nM, 10 nM, 1 nM, 100 pM, 10 pM. The competition binding data were analysed using the iterative, nonlinear, curve-fitting program, Graph pad “Prism”.\nThe binding affinities to the Via receptor of the sulfanilide derivatives claimed in the formula I were assessed using the above described in vitro biological assay. The values refer to the binding affinity (IC50; HM) of the example compounds according to formula I to the V1a receptor. From the values shown in Table 1 it can be derived that said test compounds according to formula I do show a significant binding to the Via receptor."}},
  "data": [
    {"smiles": "COc1ccc(/C=N/NC(=O)CN(c2cccc(Cl)c2)S(=O)(=O)c2ccccc2)cc1OC", "note": "[N-(3-Chloro-phenyl)-N-(3,4-dimethoxy-benzylidene-hydrazinocarbonylmethyl)-benzenesulfonamide]", "values": [
      {"measurement": "IC50", "setting": "hV1a [1]", "result": 550, "unit": "nM"}
    ]},
    {"smiles": "C/C(=N/NC(=O)CN(c1cccc(Cl)c1)S(=O)(=O)c1ccccc1)c1ccccc1O", "note": "[N-(3-Chloro-phenyl)-N-[1-(2-hydroxy-phenyl)-ethylidene-hydrazinocarbonylmethyl]-benzenesulfonamide]", "values": [
      {"measurement": "IC50", "setting": "hV1a [1]", "result": 370, "unit": "nM"}
    ]},
    {"smiles": "Cc1c(Cl)cccc1NC(=O)CN(c1ccc(Br)cc1)S(=O)(=O)c1ccccc1", "note": "[2-[Benzenesulfonyl-(4-bromo-phenyl)-amino]-N-(3-chloro-2-methyl-phenyl)-acetamide]", "values": [
      {"measurement": "IC50", "setting": "hOT-R", "result": 353, "unit": "nM"},
      {"measurement": "IC50", "setting": "ratOT-R", "result": 110, "unit": "nM"}
    ]},
    {"smiles": "Cc1c(Cl)cccc1NC(=O)CN(c1ccc(Cl)cc1)S(=O)(=O)c1ccccc1", "note": "[2-[Benzenesulfonyl-(4-chloro-phenyl)-amino]-N-(3-chloro-2-methyl-phenyl)-acetamide]", "values": [
      {"measurement": "IC50", "setting": "hOT-R", "result": 443, "unit": "nM"},
      {"measurement": "IC50", "setting": "ratOT-R", "result": 320, "unit": "nM"}
    ]},
    {"smiles": "COc1ccc(/C=N/NC(=O)CN(c2cccc(Br)c2)S(=O)(=O)c2ccccc2)cc1OC", "note": "[N-(3-Bromo-phenyl)-N-(3,4-dimethoxy-benzylidene-hydrazinocarbonylmethyl)-benzenesulfonamide]", "values": [
      {"measurement": "IC50", "setting": "hV1a [1]", "result": 440, "unit": "nM"}
    ]},
    {"smiles": "COc1ccc(S(=O)(=O)N(CC(=O)N/N=C/c2ccccc2O)c2ccc(Cl)cc2)cc1OC", "note": "[Example 37, N-(4-chlorophenyl)-N-{2-[(2E)-2-(2-hydroxybenzylidene)hydrazino]-2-oxoethyl}-3,4-dimethoxybenzenesulfonamide]", "values": [
      {"measurement": "melting point", "result": "188 to 189", "unit": "°C"},
      {"measurement": "Ki", "setting": "hV1a [2]", "result": 550, "unit": "nM"}
    ]},
    {"smiles": "C/C(=N\\NC(=O)CN(c1ccc(Br)cc1)S(=O)(=O)c1ccccc1)c1ccccc1O", "note": "[drawing 168, N-(4-bromophenyl)-N-(2-{2-[1-(2-hydroxyphenyl)ethylidene]hydrazino}-2-oxoethyl)benzenesulfonamide]", "values": [
      {"measurement": "IC50", "setting": "ratOT-R", "result": 48, "unit": "nM"}
    ]},
    {"smiles": "O=C(CN(c1ccccc1)S(=O)(=O)c1ccccc1)N/N=C1\\C(=O)Nc2ccccc21", "note": "[N-{2-oxo-2-[2-(2-oxo-1,2-dihydro-3H-indol-3-ylidene)hydrazino]ethyl}-N-phenylbenzenesulfonamide]", "values": [
      {"measurement": "IC50", "setting": "ratOT-R", "result": 300, "unit": "nM"}
    ]},
    {"smiles": "COc1ccc(N(CC(=O)Nc2ccc(Cl)cc2C)S(=O)(=O)c2ccccc2)cc1", "note": "[2-[Benzenesulfonyl-(4-methoxy-phenyl)-amino]-N-(4-chloro-2-methyl-phenyl)-acetamide]", "values": [
      {"measurement": "IC50", "setting": "hV1a [1]", "result": 90, "unit": "nM"}
    ]}
  ]
}
